Biological target: T1, human PTH1 receptor (Homo sapiens, UniProt Q03431)
T1 sequence (Q03431 27-593): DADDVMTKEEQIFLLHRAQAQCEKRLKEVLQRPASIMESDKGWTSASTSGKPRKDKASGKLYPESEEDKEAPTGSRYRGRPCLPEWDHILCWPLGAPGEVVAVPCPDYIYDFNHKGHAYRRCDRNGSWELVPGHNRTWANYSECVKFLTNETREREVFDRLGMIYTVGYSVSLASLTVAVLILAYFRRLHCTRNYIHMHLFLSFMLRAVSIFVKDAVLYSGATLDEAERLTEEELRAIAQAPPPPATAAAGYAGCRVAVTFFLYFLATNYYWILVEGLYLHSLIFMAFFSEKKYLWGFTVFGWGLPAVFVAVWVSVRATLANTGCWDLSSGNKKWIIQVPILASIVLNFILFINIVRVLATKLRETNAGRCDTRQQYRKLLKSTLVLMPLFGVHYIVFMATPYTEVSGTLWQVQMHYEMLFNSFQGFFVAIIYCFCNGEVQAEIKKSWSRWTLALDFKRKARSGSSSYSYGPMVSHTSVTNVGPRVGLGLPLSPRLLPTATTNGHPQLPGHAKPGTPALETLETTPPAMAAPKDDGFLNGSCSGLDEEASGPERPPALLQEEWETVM
Experiment: In vitro cAMP signal activity in HKRK-B7 cells (LLC-PK1 cells overexpressing the human PTH1 receptor)
Type: cell-based
Conditions: HKRK-B7 cells; compound at 1×10^−3 M; cAMP produced as percentage of that produced by hPTH(1-34) at 100 nM

With Cc1cc(N(C)C(N)=O)cc(C)c1CCS(=O)(=O)N1CCC2(CC1)N=C(CCCCCCCS(C)(=O)=O)NC2=O [Compound 1357, 1-(4-{2-[2-(7-methanesulfonyl-heptyl)-4-oxo-1,3,8-triaza-spiro[4.5]dec-1-ene-8-sulfonyl]-ethyl}-3,5-dimethyl-phenyl)-1-methyl-urea] as the compound, how does the “cAMP production activity (%)” value read?
The value was 13%.

Which “cAMP production activity (%)” value does the source give for O=C1NC(C2CCCCC2)=NC12CCN(S(=O)(=O)CCc1ccc3[nH]c(=O)sc3c1)CC2 [Compound 663, 2-cyclohexyl-8-[2-(2-oxo-2,3-dihydro-benzothiazol-6-yl)-ethanesulfonyl]-1,3,8-triaza-spiro[4.5]dec-1-en-4-one] here?
The value was 27%.

How did the “cAMP production activity (%)” value turn out when Cc1cc(N2CCC2=O)ccc1/C=C/S(=O)(=O)N1CCC2(CC1)N=C(C1CCCCC1)NC2=O [Compound 572, 2-cyclohexyl-8-{(E)-2-[2-methyl-4-(2-oxo-azetidin-1-yl)-phenyl]-ethenesulfonyl}-1,3,8-triaza-spiro[4.5]dec-1-en-4-one] was run?
Its value is 36%.

Which “cAMP production activity (%)” value does the source give for CC(C)n1ccc2c(CCS(=O)(=O)N3CCC4(CC3)N=C(C3CCCCC3)NC4=O)cccc21 [Compound 650, 2-cyclohexyl-8-[2-(1-isopropyl-1H-indol-4-yl)-ethanesulfonyl]-1,3,8-triaza-spiro[4.5]dec-1-en-4-one] here?
Its value is 55%.

Which “cAMP production activity (%)” value does the source give for COCCN(C(N)=O)c1cc(C)c(/C=C/S(=O)(=O)N2CCC3(CC2)N=C(C2CCC(CCC(F)(F)F)CC2)NC3=O)c(C)c1 (centres unmarked) [Compound 725, 1-[3,5-dimethyl-4-((E)-2-{4-oxo-2-[4-(3,3,3-trifluoro-propyl)-cyclohexyl]-1,3,8-triaza-spiro[4.5]dec-1-ene-8-sulfonyl}-vinyl)-phenyl]-1-(2-methoxy-ethyl)-urea] here?
The value was 58%.

With CC(=O)Nc1ccc(CCS(=O)(=O)N2CCC3(CC2)N=C(C2CCC(c4ccc(Cl)cc4)CC2)NC3=O)c(C)c1 (centres unmarked) [Compound 920, N-[4-(2-{2-[4-(4-Chloro-phenyl)-cyclohexyl]-4-oxo-1,3,8-triaza-spiro[4.5]dec-1-ene-8-sulfonyl}-ethyl)-3-methyl-phenyl]-acetamide] as the compound, how does the “cAMP production activity (%)” value read?
Its value is 70%.

For Cc1cc(N2C(=O)CC[C@@H]2CN(C)C)cc(C)c1/C=C/S(=O)(=O)N1CCC2(CC1)N=C(c1cccc(OC(F)(F)F)c1)NC2=O [Compound 611, 8-{(E)-2-[4-((R)-2-dimethylaminomethyl-5-oxo-pyrrolidin-1-yl)-2,6-dimethyl-phenyl]-ethenesulfonyl}-2-(3-trifluoromethoxy-phenyl)-1,3,8-triaza-spiro[4.5]dec-1-en-4-one], which “cAMP production activity (%)” value is on record?
The value was 82%.

Which “cAMP production activity (%)” value does the source give for CCCCCCCCCC1=NC2(CCN(S(=O)(=O)CCc3c(C)cc(C(=O)O)cc3C)CC2)C(=O)N1 [Compound 796, 3,5-dimethyl-4-[2-(2-nonyl-4-oxo-1,3,8-triaza-spiro[4.5]dec-1-ene-8-sulfonyl)-ethyl]-benzoic acid] here?
The value was 64%.

Which “cAMP production activity (%)” value does the source give for Cc1cc(C(=O)N2CCC(C)(O)CC2)cc(C)c1/C=C/S(=O)(=O)N1CCC2(CC1)N=C(c1ccc(Cl)c(OCC(F)(F)C(F)(F)F)c1)NC2=O [Compound 1230, 2-[4-chloro-3-(2,2,3,3,3-pentafluoro-propoxy)-phenyl]-8-{(E)-2-[4-(4-hydroxy-4-methyl-piperidine-1-carbonyl)-2,6-dimethyl-phenyl]-ethenesulfonyl}-1,3,8-triaza-spiro[4.5]dec-1-en-4-one] here?
Its value is 64%.

O=C1NC(C2CCCCC2)=NC12CCN(S(=O)(=O)CCC/C=C/c1cccc3[nH]ccc13)CC2 [Compound 252, 2-Cyclohexyl-8-[(E)-5-(1H-indol-4-yl)-pent-4-ene-1-sulfonyl]-1,3,8-triaza-spiro[4.5]dec-1-en-4-one] was tested. Which “cAMP production activity (%)” value did it give?
The value was 28%.

For Cc1cc(C(=O)N2CCCC2)cc(C)c1/C=C/S(=O)(=O)N1CCC2(CC1)N=C(c1cccc(C(F)(F)F)c1)NC2=O [Compound 388, 8-{(E)-2-[2,6-dimethyl-4-(pyrrolidine-1-carbonyl)-phenyl]-ethenesulfonyl}-2-(3-trifluoromethyl-phenyl)-1,3,8-triaza-spiro[4.5]dec-1-en-4-one], which “cAMP production activity (%)” value is on record?
The value was 84%.

Which “cAMP production activity (%)” value does the source give for Cc1cc(N(C)C(=O)OCCO)cc(C)c1/C=C/S(=O)(=O)N1CCC2(CC1)N=C(c1cccc(OC(F)(F)F)c1)NC2=O [Compound 1012, (3,5-Dimethyl-4-{(E)-2-[4-oxo-2-(3-trifluoromethoxy-phenyl)-1,3,8-triaza-spiro[4.5]dec-1-ene-8-sulfonyl]-vinyl}-phenyl)-methyl-carbamic acid 2-hydroxy-ethyl ester] here?
The value was 87%.

Which “cAMP production activity (%)” value does the source give for Cc1cc(N(C)C(N)=O)cc(C)c1CC[S@TB4](=O)(=O)N1CCC2(CC1)N=C(CCCCCCCCCCC(F)F)NC2=O [Compound 1156, 1-(4-{2-[2-(11,11-difluoro-undecyl)-4-oxo-1,3,8-triaza-spiro[4.5]dec-1-ene-8-sulfonyl]-ethyl}-3,5-dimethyl-phenyl)-1-methyl-urea] here?
Its value is 77%.

How did the “cAMP production activity (%)” value turn out when Cc1cc2ccc1CCS(=O)(=O)N1CCC3(CC1)N=C(NC3=O)c1cc(cc(C(F)(F)F)c1)OCCC(O)C(O)CCCN(C)C2=O (centres unmarked) [Compound 1430] was run?
The value was 13%.

Which “cAMP production activity (%)” value does the source give for CCOCCCCCCC1=NC2(CCN(S(=O)(=O)CCc3c(C)cc(N(C)C(N)=O)cc3C)CC2)C(=O)N1 [Compound 1344, 1-(4-{2-[2-(6-ethoxy-hexyl)-4-oxo-1,3,8-triaza-spiro[4.5]dec-1-ene-8-sulfonyl]-ethyl}-3,5-dimethyl-phenyl)-1-methyl-urea] here?
Its value is 94%.

Which “cAMP production activity (%)” value does the source give for Cc1cc(C(=O)N(C)C)ccc1CCS(=O)(=O)N1CCC2(CC1)N=C(c1ccccc1OC(F)(F)F)NC2=O [Compound 105, 3,N,N-trimethyl-4-{2-[4-oxo-2-(2-trifluoromethoxy-phenyl)-1,3,8-triaza-spiro[4.5]dec-1-ene-8-sulfonyl]-ethyl}-benzamide] here?
Its value is 78%.

For O=C1NC(C2CCCCC2)=NC12CCN(S(=O)(=O)c1cccc(Cl)c1)C2 (centres unmarked) [Compound 72, 7-(3-chloro-benzenesulfonyl)-2-cyclohexyl-1,3,7-triaza-spiro[4.4]non-1-en-4-one], which “cAMP production activity (%)” value is on record?
The value was 1.5%.

Which “cAMP production activity (%)” value does the source give for Cc1cc(N2CCCCC2=O)cc(C)c1/C=C/S(=O)(=O)N1CCC2(CC1)N=C(C1CCC(C)CC1)NC2=O (centres unmarked) [Compound 516, 8-{(E)-2-[2,6-dimethyl-4-(2-oxo-piperidin-1-yl)-phenyl]-ethenesulfonyl}-2-(4-methyl-cyclohexyl)-1,3,8-triaza-spiro[4.5]dec-1-en-4-one] here?
The value was 73%.

Which “cAMP production activity (%)” value does the source give for Cc1cc(N(C)C(N)=O)cc(C)c1CCS(=O)(=O)N1CCC2(CC1)N=C(CCCCCCCCCCCCCC(N)=O)NC2=O [Compound 1176, 14-(8-{2-[2,6-dimethyl-4-(1-methyl-ureido)-phenyl]-ethanesulfonyl}-4-oxo-1,3,8-triaza-spiro[4.5]dec-1-en-2-yl)-tetradecanoic acid amide] here?
Its value is 82%.

Which “cAMP production activity (%)” value does the source give for Cc1cc(C(=O)N2CCC(C)(O)CC2)cc(C)c1/C=C/S(=O)(=O)N1CCC2(CC1)N=C(c1cccc(C(C)(F)F)c1)NC2=O [Compound 1206, 2-[3-(1,1-difluoro-ethyl)-phenyl]-8-{(E)-2-[4-(4-hydroxy-4-methyl-piperidine-1-carbonyl)-2,6-dimethyl-phenyl]-ethenesulfonyl}-1,3,8-triaza-spiro[4.5]dec-1-en-4-one] here?
The value was 88%.

Reference: US9169254B2, “Spiroimidazolone derivative” (Chugai Seiyaku Kabushiki Kaisha, priority 2009, dated 2015)
